This experiment relates to P. falciparum 3D7 growth, pLDH absorbance. The experiment is described as follows: P. falciparum 3D7 growth inhibition, dose response, strain 3D7 (AID 2305).

Where “and” joins values, the source holds several entries; their conditions need not be identical. Equal values may be shown once.

`COc1cc(F)c2ncc(Cl)c(C(O)CN3CCC(NC(=O)c4ccc5c(n4)NC(=O)CO5)CC3)c2c1` (stereo unspecified) registered an IC50 of 750 nM.
For `Cc1ccc(CN2CCCCC(NC(=O)c3cc4ccccc4s3)C2)cc1` (stereo unspecified) the value was 900 nM; for `COc1ccccc1NC(=O)Nc1cccc(-c2ccc(-c3nc4ccc(C(F)(F)F)cc4[nH]3)cc2)c1`, 310 nM.
For the compound `COc1ccc(S(=O)(=O)NC2CCN(CCCOc3ccnc4cc(Cl)ccc34)C2)cc1OC` (stereo unspecified), the IC50 was determined as 1050 nM.
In turn, `CCc1cc2c(O)c([N+](=O)[O-])c(=O)oc2cc1OCCCCCOc1cc2oc(=O)c([N+](=O)[O-])c(O)c2cc1CC` displayed an IC50 of 260 nM.
For `CCCC(=O)Nc1ccc(Nc2nc(C)cc(N3CCCC3)n2)cc1` the value was 1490 nM; for `O=C(/C=C/c1ccc(C(F)(F)F)cc1)NCCCCCN1CCCN(C(=O)Nc2ccc(F)c(Cl)c2)CC1`, 370 nM.
For `O=C(Oc1ccc(C2CNCCc3c2cc(OC(=O)c2ccc(O)cc2)c(OC(=O)c2ccc(O)cc2)c3Cl)cc1)c1ccc(O)cc1` (stereo unspecified), the IC50 stood at 980 nM.
`COc1ccc(NC(=O)c2ccc(OCCCCCCCOc3ccc(C(=O)Nc4ccc(OC)c(N5CCN(C)CC5)c4)cc3)cc2)cc1N1CCN(C)CC1` displayed an IC50 of 600 nM.
With `O=C(Nc1ccc(-c2ccc(-c3nc4ccc(C(F)(F)F)cc4[nH]3)s2)cc1)c1cnc[nH]1`, the IC50 was found to be 670 nM.
For `O=S(=O)(Nc1cccc(CCN2CCCCC2CCN2CCCC2)c1)c1ccc(-c2ccccc2)cc1` (stereo unspecified), the IC50 worked out at 1090 nM. Against the preceding compound, the IC50 is about 1.6-fold higher.
For `COc1ccc2ncc(F)c(C(O)CN3CCC(NCc4ccc5c(n4)NC(=O)CO5)CC3)c2c1` (stereo unspecified) the value was 1110 nM and 370 nM; for `CC(C)(C)[C@@H](Nc1ccc(C#N)c2ccccc12)C(=O)NC1(Cc2ccc(O)cc2)CCCC1`, 1440 nM.
Compound `Cc1ccccc1Nc1nc(NCc2ccccc2)nc2ccccc12` returned an IC50 of 1020 nM.
The same measure for `Cc1ccc(C)c(NC(=O)Nc2ccc(Nc3nc(C)cc(N4CCOCC4)n3)cc2)c1`: 980 nM; for `COc1cc2nc(N(C)CC3COc4ccccc4O3)nc(N)c2cc1OC` (stereo unspecified): 1550 nM; for `CN(C)c1ccc(-c2csc(C(=O)NCC3CCN(CC4CCCCC4)C3)c2)cc1` (stereo unspecified): 1140 nM.
For `C=CCOC(=O)N1CCC(CNCc2ccc(-c3ccc(-c4nc5ccccc5[nH]4)s3)cc2)C1` (stereo unspecified) the value was 230 nM; for `O=C(/C=C/c1ccc(Cl)c(Cl)c1)N1CCC(NCc2c[nH]c3ccccc23)CC1`, 1070 nM.
The same measure for `Cc1cc(CN2CC[C@H](NC(=O)c3ccc(Cl)c(Cl)c3)C2)ccc1OCCN1CCCC1`: 1160 nM; for `COc1ccc2ncc(F)c(CCN3CC[C@@H](CNCc4ccc5c(c4C)OCCO5)C3)c2n1`: 1030 nM.
For the compound `CC(C)NCc1cccc(-c2ccc(NC(=O)c3ccc(C#N)cc3)cc2)c1`, the IC50 was 830 nM.
The same measure for `O=C(NCCc1ccccc1F)c1cc(Br)cc(N2CCN(c3ccncc3)CC2)c1`: 760 nM; for `Oc1ccccc1N1CCN(c2ccc(-c3nc4ccccc4[nH]3)cn2)CC1`: 1130 nM; for `CCCCC(NCC)c1ccc(OCCOc2ccc(C(CCCC)NCC)cc2)cc1` (stereo unspecified): 930 nM.
Compound `COc1ccc2nccc([C@@H](O)CN3CCC(NCCOc4ccccc4[N+](=O)[O-])CC3)c2c1` returned an IC50 of 380 nM.
The same measure for `CC(=O)Nc1cccc(CNc2cc(C)nc(Nc3ccc(C)cc3)n2)c1`: 1140 nM; for `Nc1cccc(C=CC(=O)Nc2ccnc3ccccc23)c1`: 1060 nM.
For `O=C(/C=C/c1ccc(Cl)c(Cl)c1)NCCCCCN1CCC(c2[nH]nc(-c3ccccc3)c2Br)CC1` the value was 720 nM; for `CCNC(=O)CCc1cccc(Br)c1`, 530 nM; for `N#Cc1ccc(NC(=NC2Cc3ccccc3C2)Nc2cccc(Cl)c2Cl)c(O)c1`, 830 nM.
The same measure for `O=C(NCc1ccc(F)cc1)Nc1cccc(-c2ccc(-c3nc4ccccc4[nH]3)cc2)c1`: 170 nM; for `O=C(/C=C/c1cc(C(F)(F)F)ccc1F)NCCCCCN1CCC(c2c[nH]c3ccccc23)CC1`: 1130 nM.
In turn, `COc1cc(NC(=O)/C=C/c2cc(F)cc(F)c2F)cc(OCCN2CCC(O)(c3ccccc3)CC2)c1` gave an IC50 of 170 nM.
Regarding `O=C(C(=O)c1ccc(Nc2ccnc3cc(-c4ccccn4)ccc23)cc1)c1ccccc1`, the IC50 was 970 nM.
The same measure for `CCCn1c(=N)c(C(=O)NCCc2ccccc2)cc2c(=O)n3cccc(C)c3nc21`: 1120 nM; for `CCCCC(=O)NC(c1cccs1)c1cc(Cl)c2cccnc2c1O` (stereo unspecified): 380 nM; for `O=c1[nH]ccc2nc(N[C@@H]3CCNC3)nc(Nc3cccc(S(=O)(=O)N4CCOCC4)c3)c12`: 1230 nM.
As for `CC(C)N(CCOc1ccc2c(c1)N(C(=O)Nc1cc(Br)cc(C(F)(F)F)c1)CC2)C(C)C`, the IC50 came out at 110 nM.
`O=C(CSc1nc2ccccc2c(=O)n1C1CC1)Nc1cc(C(F)(F)F)ccc1Cl` yielded an IC50 of 110 nM. That is a sub-micromolar value.
The same measure for `Cc1cccc2[nH]c(-c3ccc(-c4cccc(NC(=O)c5cccc(C(N)=O)c5)c4)cc3)nc12`: 1130 nM; for `CCC[C@@H]([C@@H](CC(C)C)C(=O)N[C@@H](CCCCNC(=O)c1cccc(OC)c1)C(=O)Nc1nccs1)N(O)C=O`: 100 nM; for `CCCCOC(=O)NCCCC[C@H](NC(=O)OC(C)(C)C)C(=O)N[C@H](C(=O)OC(c1ccccc1)c1ccccc1)[C@H]1O[C@@H](n2ccc(=O)[nH]c2=O)[C@@H]2OC(C)(C)O[C@@H]21`: 1090 nM.
Turning to `COc1cc2c(cc1OCCN1CCC(N)CC1)N(C(=O)/C=C/c1ccccc1Cl)CC2`, the IC50 was 1120 nM. This IC50 and that of the compound before are within 1.5-fold of each other.
`COc1ccc(C2CC(c3cccs3)=NN2C(=O)c2ccco2)cc1OC` (stereo unspecified) came in with a half-inhibitory concentration (IC50) of 170 nM.
The same measure for `O=C(NC(=S)NCc1ccncc1)c1ccccc1`: 1690 nM.
The same measure for `COc1cc2nc(N3CCN(c4cc(C)ccc4C)CC3)nc(N)c2cc1OC`: 850 nM; for `CN(C)CCOc1cccc(NC(=O)Nc2ccc(-c3ccccc3)cc2)c1`: 880 nM; for `O=C(Nc1cccc(C(F)(F)F)c1)Nc1ccc2nonc2c1`: 850 nM.
For `Cc1sc(NC(=O)c2ccc([N+](=O)[O-])cc2Cl)c(C(N)=O)c1C` the value was 930 nM.
With `CC(C)Sc1nc2c(c(=O)n1Cc1ccco1)C1(CCCCC1)Cc1ccccc1-2`, the IC50 is 250 nM.
The compound `CCCCN(Cc1cc(Cl)c(OC)c(OC)c1)c1ccc(C(O)(C(F)(F)F)C(F)(F)F)cc1` showed an IC50 of 190 nM.
For `O=C(Nc1ccc(Cl)cn1)c1sc2ccccc2c1O` the value was 1040 nM; for `O=C(NC1CCN(c2ccnc3cc(Cl)ccc23)C1)c1cccc(F)c1` (stereo unspecified), 180 nM.
Turning to `NC(=O)c1ccc(C(=O)Nc2cccc(-c3cccc(-c4nc5ccc(C(F)(F)F)cc5[nH]4)c3)c2)cc1`, the IC50 was 230 nM.
For `c1ccc(COc2ccc(Nc3ncnc4ccc(-c5ccc(CN6CCSCC6)o5)cc34)cc2)cc1` the value was 830 nM; for `CCCCCN1CCCN(Cc2cccc(NC(=O)c3cc4ccccc4s3)c2)CC1`, 590 nM; for `CC(Cc1ccc(OCCCCOc2ccccc2)cc1)NCCc1ccc(Oc2ccccc2)cc1` (stereo unspecified), 810 nM.
The same measure for `O=C(/C=C/c1ccc(Cl)c(Cl)c1)NC1CCC(CN2CCC(Cc3cc4ccccc4[nH]3)CC2)CC1` (stereo unspecified): 510 nM.
For `O=C(COc1ccccc1Cl)N1CCc2cc3nccc(N4CCN5CCC[C@H]5C4)c3cc21` the value was 740 nM.
Consider `Cc1[nH]c(C)c(-c2ccc(OCc3ccc(F)cc3)cc2)c(=O)c1Br`, for which the IC50 came to 80 nM.

A word on the IC50: it is the point on the concentration scale where inhibition reaches its midpoint.

(Values after PubChem BioAssay AID2305 (GlaxoSmithKline (GSK), 2010).)
